From patent US8063048B2, “Acetylenyl-pyrazolo-pyrimidine derivatives” (Hoffmann-La Roche Inc., priority 2005, dated 2011) come the findings set out here.

What is called melting point is the temperature, or range, at which the solid turns liquid. On to `O=S(=O)(Nc1ccncc1)c1ccc(C#Cc2cnn3c(C(F)F)cc(-c4ccc(C(F)(F)F)cc4)nc23)s1` [Example 282, 5-[7-Difluoromethyl-5-(4-trifluoromethyl-phenyl)-pyrazolo[1,5-a]pyrimidin-3-ylethynyl]-thiophene-2-sulfonic acid pyridin-4-ylamide], for which the melting point was found to be 215 °C.

`CCOc1cc(-c2cc(C(F)(F)F)n3ncc(C#Cc4ncc(S(=O)(=O)NC(C)(C)CO)s4)c3n2)ccc1C(F)(F)F` [Example 51, 2-[5-(3-Ethoxy-4-trifluoromethyl-phenyl)-7-trifluoromethyl-pyrazolo[1,5-a]pyrimidin-3-ylethynyl]-thiazole-5-sulfonic acid (2-hydroxy-1,1-dimethyl-ethyl)-amide] came in with a melting point of 209 to 211 °C.

As to `O=S(=O)(NCc1cccnc1)c1ccc(C#Cc2cnn3c(C(F)F)cc(-c4ccc(C(F)(F)F)cc4)nc23)s1` [Example 278, 5-[7-Difluoromethyl-5-(4-trifluoromethyl-phenyl)-pyrazolo[1,5-a]pyrimidin-3-ylethynyl]-thiophene-2-sulfonic acid (pyridin-3-ylmethyl)-amide], the melting point amounted to 152 °C.

For `O=S(=O)(NC(CO)CO)c1ccc(C#Cc2cnn3c(C(F)(F)F)cc(-c4ccc(C(F)(F)F)cc4)nc23)s1` [Example 163, 5-[7-Trifluoromethyl-5-(4-trifluoromethyl-phenyl)-pyrazolo[1,5-a]pyrimidin-3-ylethynyl]-thiophene-2-sulfonic acid (2-hydroxy-1-hydroxymethyl-ethyl)-amide], the melting point was determined as 247 °C.

`CNS(=O)(=O)c1cccc(C#Cc2cnn3c(C(F)F)cc(-c4ccc(C(F)(F)F)cc4)nc23)c1` [Example 145, 3-[7-Difluoromethyl-5-(4-trifluoromethyl-phenyl)-pyrazolo[1,5-a]pyrimidin-3-ylethynyl]-N-methyl-benzenesulfonamide] gave a melting point of 192 to 194 °C.

Consider `CCc1cc(-c2ccc(Cl)cc2)nc2c(C#Cc3ccc(N)nc3)cnn12` [Example 304, 5-[5-(4-Chloro-phenyl)-7-ethyl-pyrazolo[1,5-a]pyrimidin-3-ylethynyl]-pyridin-2-ylamine], for which the melting point lay within 205 to 206 °C.

Take `Cc1cc(-c2cc(C(F)(F)F)n3ncc(C#Cc4ccc(S(N)(=O)=O)cc4)c3n2)ccc1Cl` [Example 110, 4-[5-(4-Chloro-3-methyl-phenyl)-7-trifluoromethyl-pyrazolo[1,5-a]pyrimidin-3-ylethynyl]-benzenesulfonamide]: the melting point was determined as 275 °C.

`Nc1ncc(C#Cc2cnn3c(C(F)(F)F)cc(-c4ccc(Cl)cc4)nc23)cn1` [Example 317, 5-[5-(4-Chloro-phenyl)-7-trifluoromethyl-pyrazolo[1,5-a]pyrimidin-3-ylethynyl]-pyrimidin-2-ylamine] showed a melting point of 303 to 305 °C.

With `NS(=O)(=O)c1ccc(C#Cc2cnc3c(C(F)(F)F)cc(-c4ccc(C(F)(F)F)cc4)cn23)s1` [Example 193, 5-[8-Trifluoromethyl-6-(4-trifluoromethyl-phenyl)-imidazo[1,2-a]pyridin-3-ylethynyl]-thiophene-2-sulfonic acid amide], the melting point was in the range of 248 to 250 °C.

With `CN(C)CCNS(=O)(=O)c1ccc(C#Cc2cnn3c(C(F)F)cc(-c4cccc(C(F)(F)F)c4)nc23)s1` [Example 250, 5-[7-Difluoromethyl-5-(3-trifluoromethyl-phenyl)-pyrazolo[1,5-a]pyrimidin-3-ylethynyl]-thiophene-2-sulfonic acid (2-dimethylamino-ethyl)-amide], the melting point is 170 °C.

Take `NC(=O)c1cncc(C#Cc2cnn3c(C(F)(F)F)cc(-c4ccc(C(F)(F)F)cc4)nc23)c1` [Example 15, 5-[7-Trifluoromethyl-5-(4-trifluoromethyl-phenyl)-pyrazolo[1,5-a]pyrimidin-3-ylethynyl]-nicotinamide]: the melting point fell in the range of 285 to 287 °C.
